Here are results for one compound from PMC11476629, “Exploring a Potential Optimization Route for Peptide Ligands of the Sam Domain from the Lipid Phosphatase Ship2” (International Journal of Molecular Sciences, 2024).

Data set [1] concerns normal human dermal fibroblasts (NHDFs). Conditions: NHDF, 50 and 100 µM, 4 h, crystal violet; three experiments in quadruplicate. As to the method:
(§1) Media and supplements were obtained from Thermo Fisher Scientific (Milan, Italy). PC-3 cells were cultured in the RPMI 1640 medium enriched with 10% fetal bovine serum (FBS) and 2 mM L-glutamine. NHDFs were cultured in the DMEM medium complemented with 2% FBS, 1 μg/mL hydrocortisone, 10 ng/mL human epidermal growth factor, 3 ng/mL basic fibroblast growth factor, and 10 μg/mL heparin. For the cytotoxicity assay 96-well flat-bottom microplates were used and 4 × 10^3 cancer cells and 5 × 10^3 NHDF cells were seeded in 50 μL of medium per well and incubated overnight to permit cell adhesion at 37 °C in a 5% CO2 humidified atmosphere. Following the removal of the culture medium, cells were incubated with 100 μL of their growth medium containing 50 and 100 μM TAT-PSscan255 for 4 h. TAT-PSscan255 was dissolved in water. The crystal violet assay was performed to assess cell viability. The amount of dye taken up was quantified with a plate reader (Multiskan Fc 10094, Thermo Fisher Scientific, Milan, Italy) at 595 nm. Data, reported as means ± SEM of three independent experiments carried out in quadruplicate, were presented as the percentage of proliferating cells compared to the control (vehicle-treated cells).

The subject of another data set is PC-3 cells. Conditions: 4 h, crystal violet. As to the method: as §1
The subject of data set [2] is EphA2 levels in PC-3 cells. Nature of the data set: Western blot analysis of EphA2 levels. To be noted: n = 3. The class given is cell-based. How it is done:
The levels of EphA2 were monitored in PC-3 cells through Western blot analysis to evaluate if the binding of the TAT-PSscan255 peptide to Ship2-Sam could avoid the inhibition of EphA2 endocytosis and degradation. For this purpose, PC-3 cells were treated with ephrinA1-Fc (1 µg/mL for 2 h) and TAT-PSscan255 (50 µM for 4 h), both alone and in combination (i.e., pre-treating with TAT-peptide 50 µM for 2 h followed by the addition of ephrinA1-Fc 1 µg/mL for an extra 2 h) (Figure 7b).
PC-3 cells were treated with TAT-PSscan255 (50 μM) for 4 h and ephrinA1-Fc (1 μg/mL) for 2 h, both alone and in combination. […] Lysates were centrifuged at 13,000 rpm for 30 min at 4 °C and the protein concentration in the supernatants was evaluated using the Bradford assay. […] Quantification was achieved through densitometric analysis with the ImageJ software (v.1.54g) (National Institutes of Health, Bethesda, MD, USA, https://imagej.org). Statistical significance regarding the comparison between treated and untreated cells was evaluated with one-way ANOVA using Dunnett’s post-test analysis. Statistical analysis was assessed with the OriginPro software v.2023 (OriginLab Corporation, Northampton, MA, USA).

Molecules are shown by their SMILES. Non-standard residues stand in square brackets, D forms with d. Residues, ends and D or L forms follow the SMILES beside them. βAla = NCCC(=O)O

For the compound `CC[C@H](C)[C@H](NC(=O)[C@H](CCCNC(=N)N)NC(=O)[C@H](CCCCN)NC(=O)[C@H](CC(N)=O)NC(=O)[C@H](C)NC(=O)[C@H](CC(C)C)NC(=O)[C@H](Cc1ccccc1)NC(=O)[C@H](CCCCN)NC(=O)[C@H](Cc1ccc(O)cc1)NC(=O)[C@H](Cc1c[nH]c2ccccc12)NC(=O)[C@H](CCC(=O)O)NC(=O)[C@H](CCCNC(=N)N)NC(=O)[C@H](CCCCN)NC(=O)CNC(=O)CNC(=O)[C@H](CCC(N)=O)NC(=O)[C@@H]1CCCN1C(=O)[C@@H]1CCCN1C(=O)[C@H](CCCNC(=N)N)NC(=O)[C@H](CCCNC(=N)N)NC(=O)[C@H](CCCNC(=N)N)NC(=O)[C@H](CCC(N)=O)NC(=O)[C@H](CCCNC(=N)N)NC(=O)[C@H](CCCNC(=N)N)NC(=O)[C@H](CCCCN)NC(=O)[C@H](CCCCN)NC(=O)[C@H](CCCNC(=N)N)NC(=O)CNC(=O)CCNC(C)=O)C(=O)N[C@@H](C)C(=O)N[C@@H](Cc1ccc(O)cc1)C(N)=O` [TAT-PSscan255] (Ac-[βAla]GRKKRRQRRRPPQGGKREWYKFLANKRIAY-NH2), the “Cytotoxic effect (cell viability relative to untreated cells)” value is “increased cytotoxic effect as a function of concentration” in data set [1]; “increased cytotoxic effect as a function of concentration” with PC-3 cells (PC-3, 50 and 100 µM, three experiments in quadruplicate). Also, the “Cytotoxicity towards PC-3 compared with NHDFs” value with PC-3 cells (50 and 100 µM) is on record as “increased cytotoxicity towards PC-3 with respect to NHDFs”. In addition, the “EphA2 levels with respect to untreated control” value in data set [2] (PC-3, TAT-PSscan255 alone, 50 µM for 4 h) is “a certain decrease in EphA2 levels”; in data set [2] (PC-3, TAT-peptide 50 µM for 2 h, then ephrinA1-Fc 1 µg/mL added for an extra 2 h) it was “a reduction in EphA2 levels like that observed for the ephrin ligand when used by itself”.
